Experimental data reported in patent publication US10532977B2, “Small molecule inhibitors of protein tyrosine phosphatases and uses thereof” (Indiana University Research and Technology Corporation, priority 2015, dated 2020).
Entries after “also recorded” stand apart in the source; their conditions may differ.

Tests used:
[1] = system: M. tuberculosis H37Rv; test: Microplate Alamar Blue assay (MABA) MIC, H37Rv; type: cell-based, Mycobacterium tuberculosis
[2] = system: Mtb-infected macrophages; test: Macrophage assay, growth of M. tuberculosis in IFN-γ activated J774 macrophages; type: cell-based, Mycobacterium tuberculosis; details: J774A.1 macrophages
[3] = biological target: T1, SHP2 (Homo sapiens, UniProt Q06124); test: SHP2 inhibition, pNPP substrate; type: biochemical
T1 sequence (Q06124 224-528): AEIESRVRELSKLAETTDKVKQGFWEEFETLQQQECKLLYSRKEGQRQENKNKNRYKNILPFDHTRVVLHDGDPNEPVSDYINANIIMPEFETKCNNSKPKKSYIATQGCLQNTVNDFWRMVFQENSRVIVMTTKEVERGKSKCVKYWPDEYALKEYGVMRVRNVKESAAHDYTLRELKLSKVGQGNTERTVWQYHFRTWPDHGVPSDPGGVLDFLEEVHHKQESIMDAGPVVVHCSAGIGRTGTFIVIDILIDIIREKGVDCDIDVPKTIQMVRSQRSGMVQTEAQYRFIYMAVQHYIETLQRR

[4] = system: EGF-mediated ERK1/2 phosphorylation; test: EGF-mediated ERK1/2 phosphorylation, immunoblot, H1975 cells; type: cell-based, human; details: compound 7 at 40 μM
Description: Cell proliferation and immunoblot analysis. Human non-small cell lung carcinoma cell line H1975 was cultured at 37° C. and 5% CO2 in RPMI-1640 (Corning) supplemented with 10% fetal bovine serum (HyClone). Human breast cancer cell line MDA-MB-231 was cultured in DMEM supplemented with 10% fetal bovine serum. For cell proliferation assay, 2˜3×10^3 cells were seeded in each well of 96-well plates. After treating cells with compounds for 2 days, cells were incubated with 50 µg/ml MTT (3-(4,5-Dimethylthiazol-2-yl)-2,5-diphenyltetrazolium bromide) for ˜3-4 hours. Then, the culture medium was removed, DMSO was added to dissolve the formazan crystals. Wells containing only media were used for background correction. The optical density was measured spectrophotometrically at 540 nm. For signaling analysis, cells were serum-starved overnight followed by treatment with vehicle or compounds for 3 hours, and then either left un-stimulated or stimulated with 5 μg/ml EGF or 10 nM PMA (Sigma) for indicated time. Cells were lysed and the lysates were electrophoresed on a 10% polyacrylamide gel, and then transferred to a nitrocellulose membrane, and probed with anti-phospho-ERK1/2 and anti-ERK1/2 (Cell Signaling) antibodies followed by incubation with horseradish peroxidase-conjugated secondary antibodies. […]

[5] = biological target: T2, PTPH1 (Homo sapiens, UniProt P26045); test: PTPH1 inhibition, pNPP substrate; type: biochemical; details: pH 7
T2 sequence (P26045 1-913): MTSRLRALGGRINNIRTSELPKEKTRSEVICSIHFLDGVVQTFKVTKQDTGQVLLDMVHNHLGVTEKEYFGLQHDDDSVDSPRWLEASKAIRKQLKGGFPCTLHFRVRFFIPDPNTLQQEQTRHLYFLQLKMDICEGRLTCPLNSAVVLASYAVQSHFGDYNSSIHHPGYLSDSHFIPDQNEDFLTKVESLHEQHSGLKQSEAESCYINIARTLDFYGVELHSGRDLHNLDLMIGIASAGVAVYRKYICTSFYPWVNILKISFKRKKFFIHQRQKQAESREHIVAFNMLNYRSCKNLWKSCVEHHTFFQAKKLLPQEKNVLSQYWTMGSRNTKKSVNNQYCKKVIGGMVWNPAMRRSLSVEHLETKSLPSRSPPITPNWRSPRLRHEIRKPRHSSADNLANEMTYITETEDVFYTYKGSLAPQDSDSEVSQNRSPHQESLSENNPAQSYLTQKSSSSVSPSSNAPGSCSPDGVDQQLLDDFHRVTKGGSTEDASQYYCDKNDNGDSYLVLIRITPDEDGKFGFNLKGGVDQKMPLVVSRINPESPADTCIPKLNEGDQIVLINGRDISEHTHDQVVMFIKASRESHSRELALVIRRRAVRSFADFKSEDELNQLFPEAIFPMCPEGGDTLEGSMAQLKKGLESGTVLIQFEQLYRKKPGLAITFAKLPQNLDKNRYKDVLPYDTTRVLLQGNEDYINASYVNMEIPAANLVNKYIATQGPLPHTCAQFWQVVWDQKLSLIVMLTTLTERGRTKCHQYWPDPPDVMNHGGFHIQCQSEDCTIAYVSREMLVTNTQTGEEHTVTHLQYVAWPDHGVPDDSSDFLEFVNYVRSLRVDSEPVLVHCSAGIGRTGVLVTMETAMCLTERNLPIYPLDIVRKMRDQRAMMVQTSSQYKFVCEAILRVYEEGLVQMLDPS

[6] = biological target: PTP1B (Homo sapiens, UniProt P18031); test: PTP1B inhibition, pNPP substrate; type: biochemical; details: pNPP at Km, pH 7.0, 25° C.
Chain of PTP1B (P18031 whole entry): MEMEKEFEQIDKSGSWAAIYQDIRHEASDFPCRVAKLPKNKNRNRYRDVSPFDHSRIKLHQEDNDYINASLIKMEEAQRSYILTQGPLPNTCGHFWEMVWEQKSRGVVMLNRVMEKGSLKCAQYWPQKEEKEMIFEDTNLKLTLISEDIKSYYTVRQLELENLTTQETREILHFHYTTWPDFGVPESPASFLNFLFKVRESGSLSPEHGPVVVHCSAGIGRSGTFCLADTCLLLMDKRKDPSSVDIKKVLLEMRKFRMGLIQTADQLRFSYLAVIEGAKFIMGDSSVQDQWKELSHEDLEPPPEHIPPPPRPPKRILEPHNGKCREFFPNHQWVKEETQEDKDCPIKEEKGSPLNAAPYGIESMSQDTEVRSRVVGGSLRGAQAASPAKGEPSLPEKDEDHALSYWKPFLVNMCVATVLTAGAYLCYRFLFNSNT

[7] = biological target: TcPTP (Homo sapiens, UniProt P17706); test: TcPTP inhibition, pNPP substrate; type: biochemical; details: pH 7
Chain of TcPTP (P17706 whole entry): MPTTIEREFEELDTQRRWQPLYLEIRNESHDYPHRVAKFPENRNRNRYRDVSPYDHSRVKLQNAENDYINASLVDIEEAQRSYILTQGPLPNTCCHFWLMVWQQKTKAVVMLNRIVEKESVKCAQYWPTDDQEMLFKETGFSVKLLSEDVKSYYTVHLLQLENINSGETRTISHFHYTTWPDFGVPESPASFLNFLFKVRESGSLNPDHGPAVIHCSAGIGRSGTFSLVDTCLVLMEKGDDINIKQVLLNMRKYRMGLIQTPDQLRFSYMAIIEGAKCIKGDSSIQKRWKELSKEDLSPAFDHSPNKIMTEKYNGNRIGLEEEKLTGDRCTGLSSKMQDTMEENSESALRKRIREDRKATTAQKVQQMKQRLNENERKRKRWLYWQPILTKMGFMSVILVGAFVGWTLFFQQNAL

[8] = biological target: LYP (Homo sapiens, UniProt Q9Y2R2); test: LYP inhibition, pNPP substrate; type: biochemical; details: pNPP at Km, pH 7.0, 25° C.
Chain of LYP (Q9Y2R2 whole entry): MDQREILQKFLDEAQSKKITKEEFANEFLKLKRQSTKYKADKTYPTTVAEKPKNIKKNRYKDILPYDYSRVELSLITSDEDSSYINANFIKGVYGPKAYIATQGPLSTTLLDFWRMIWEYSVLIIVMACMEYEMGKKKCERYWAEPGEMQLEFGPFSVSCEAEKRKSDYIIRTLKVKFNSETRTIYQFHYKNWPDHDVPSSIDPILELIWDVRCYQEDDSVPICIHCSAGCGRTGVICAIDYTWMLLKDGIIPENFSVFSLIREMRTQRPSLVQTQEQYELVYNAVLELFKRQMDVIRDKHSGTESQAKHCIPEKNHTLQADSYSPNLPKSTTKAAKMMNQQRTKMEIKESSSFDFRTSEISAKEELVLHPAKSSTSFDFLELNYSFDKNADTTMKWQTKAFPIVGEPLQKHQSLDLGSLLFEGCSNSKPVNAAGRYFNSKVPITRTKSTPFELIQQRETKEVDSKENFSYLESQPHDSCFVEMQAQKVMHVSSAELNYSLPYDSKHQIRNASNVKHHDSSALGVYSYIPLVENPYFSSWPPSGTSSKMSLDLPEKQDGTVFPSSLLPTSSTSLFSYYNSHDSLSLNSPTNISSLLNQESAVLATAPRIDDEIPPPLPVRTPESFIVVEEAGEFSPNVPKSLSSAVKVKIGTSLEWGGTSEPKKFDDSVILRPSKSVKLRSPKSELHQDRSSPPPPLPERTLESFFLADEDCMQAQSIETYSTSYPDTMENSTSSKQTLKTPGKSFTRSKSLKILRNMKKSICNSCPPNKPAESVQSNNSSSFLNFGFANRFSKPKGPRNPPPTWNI

[9] = biological target: PEST (Homo sapiens, UniProt Q05209); test: PEST inhibition, pNPP substrate; type: biochemical; details: pH 7
[10] = biological target: HePTP (Homo sapiens, UniProt P35236); test: HePTP inhibition, pNPP substrate; type: biochemical; details: pNPP at Km, pH 7.0, 25° C.
Chain of HePTP (P35236 whole entry): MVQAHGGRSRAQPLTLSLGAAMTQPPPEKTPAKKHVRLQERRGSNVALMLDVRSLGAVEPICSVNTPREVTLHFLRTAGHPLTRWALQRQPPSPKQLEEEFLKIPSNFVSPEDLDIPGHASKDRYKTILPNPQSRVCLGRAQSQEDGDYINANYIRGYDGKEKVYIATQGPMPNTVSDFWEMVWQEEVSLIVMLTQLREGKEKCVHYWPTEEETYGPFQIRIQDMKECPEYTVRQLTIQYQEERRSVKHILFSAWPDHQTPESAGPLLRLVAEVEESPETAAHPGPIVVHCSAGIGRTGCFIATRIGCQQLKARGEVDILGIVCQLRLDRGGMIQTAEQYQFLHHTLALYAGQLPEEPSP

[11] = biological target: FAP1 (Homo sapiens, UniProt Q12923); test: FAP1 inhibition, pNPP substrate; type: biochemical; details: pH 7
Chain of FAP1 (Q12923 whole entry): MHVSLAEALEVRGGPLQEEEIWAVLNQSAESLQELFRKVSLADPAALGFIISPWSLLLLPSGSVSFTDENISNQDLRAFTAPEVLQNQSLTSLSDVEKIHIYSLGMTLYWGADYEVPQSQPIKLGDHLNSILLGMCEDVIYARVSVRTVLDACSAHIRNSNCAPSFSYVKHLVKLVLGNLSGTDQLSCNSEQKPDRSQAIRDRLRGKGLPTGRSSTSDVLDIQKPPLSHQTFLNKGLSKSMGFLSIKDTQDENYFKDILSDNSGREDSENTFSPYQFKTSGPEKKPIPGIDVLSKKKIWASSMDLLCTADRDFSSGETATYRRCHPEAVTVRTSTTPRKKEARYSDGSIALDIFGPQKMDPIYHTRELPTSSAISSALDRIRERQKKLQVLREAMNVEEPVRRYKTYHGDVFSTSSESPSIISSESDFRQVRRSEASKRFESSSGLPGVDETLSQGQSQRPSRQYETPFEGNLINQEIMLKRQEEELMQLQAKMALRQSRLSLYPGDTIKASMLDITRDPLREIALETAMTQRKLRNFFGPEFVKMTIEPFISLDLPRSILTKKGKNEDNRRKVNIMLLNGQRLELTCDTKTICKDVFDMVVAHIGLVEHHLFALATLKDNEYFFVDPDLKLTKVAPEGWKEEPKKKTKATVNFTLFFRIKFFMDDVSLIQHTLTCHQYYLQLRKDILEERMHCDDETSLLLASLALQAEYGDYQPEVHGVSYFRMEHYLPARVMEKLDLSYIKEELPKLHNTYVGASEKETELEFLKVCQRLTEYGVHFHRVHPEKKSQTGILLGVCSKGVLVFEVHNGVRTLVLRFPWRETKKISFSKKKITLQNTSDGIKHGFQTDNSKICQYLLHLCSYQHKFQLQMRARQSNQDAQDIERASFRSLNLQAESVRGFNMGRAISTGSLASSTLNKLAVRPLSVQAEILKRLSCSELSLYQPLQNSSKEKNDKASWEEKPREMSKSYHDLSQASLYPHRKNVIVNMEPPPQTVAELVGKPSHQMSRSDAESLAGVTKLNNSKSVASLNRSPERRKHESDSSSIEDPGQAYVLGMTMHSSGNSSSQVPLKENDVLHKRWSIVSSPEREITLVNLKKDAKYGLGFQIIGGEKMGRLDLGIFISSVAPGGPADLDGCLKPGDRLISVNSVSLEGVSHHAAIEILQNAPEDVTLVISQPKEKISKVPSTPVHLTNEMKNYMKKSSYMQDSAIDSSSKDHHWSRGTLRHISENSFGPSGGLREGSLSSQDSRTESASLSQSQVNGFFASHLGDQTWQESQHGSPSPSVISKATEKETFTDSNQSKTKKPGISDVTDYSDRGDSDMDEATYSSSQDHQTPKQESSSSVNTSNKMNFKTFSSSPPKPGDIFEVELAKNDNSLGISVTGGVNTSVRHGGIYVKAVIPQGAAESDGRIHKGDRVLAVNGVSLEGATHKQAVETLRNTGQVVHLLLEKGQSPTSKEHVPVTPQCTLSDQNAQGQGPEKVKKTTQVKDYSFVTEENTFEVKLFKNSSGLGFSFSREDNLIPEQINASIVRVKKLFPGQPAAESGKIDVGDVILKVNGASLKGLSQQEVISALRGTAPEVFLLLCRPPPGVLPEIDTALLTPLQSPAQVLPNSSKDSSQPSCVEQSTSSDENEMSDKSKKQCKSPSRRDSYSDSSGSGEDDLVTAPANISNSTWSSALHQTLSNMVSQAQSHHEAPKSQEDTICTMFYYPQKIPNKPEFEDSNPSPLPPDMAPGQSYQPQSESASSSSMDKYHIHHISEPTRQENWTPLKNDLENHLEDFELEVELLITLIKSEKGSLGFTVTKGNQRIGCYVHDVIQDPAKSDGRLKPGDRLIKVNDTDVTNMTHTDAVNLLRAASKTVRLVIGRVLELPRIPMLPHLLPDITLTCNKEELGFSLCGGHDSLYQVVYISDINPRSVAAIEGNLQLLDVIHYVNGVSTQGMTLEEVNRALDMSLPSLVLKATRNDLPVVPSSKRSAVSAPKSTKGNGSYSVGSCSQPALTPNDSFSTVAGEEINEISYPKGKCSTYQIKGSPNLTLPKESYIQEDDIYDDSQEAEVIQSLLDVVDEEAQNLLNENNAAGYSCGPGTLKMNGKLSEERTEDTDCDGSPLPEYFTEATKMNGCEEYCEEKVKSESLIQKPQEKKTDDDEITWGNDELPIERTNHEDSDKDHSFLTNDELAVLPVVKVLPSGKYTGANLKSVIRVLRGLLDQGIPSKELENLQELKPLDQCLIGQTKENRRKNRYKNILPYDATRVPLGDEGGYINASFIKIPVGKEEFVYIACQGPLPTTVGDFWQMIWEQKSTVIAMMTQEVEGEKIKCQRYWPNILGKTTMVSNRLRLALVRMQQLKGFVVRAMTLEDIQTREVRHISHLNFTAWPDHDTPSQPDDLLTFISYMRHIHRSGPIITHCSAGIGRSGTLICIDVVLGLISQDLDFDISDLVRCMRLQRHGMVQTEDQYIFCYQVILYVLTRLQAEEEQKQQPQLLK

[12] = biological target: VHR (Homo sapiens, UniProt P51452); test: VHR inhibition, pNPP substrate; type: biochemical; details: pNPP at Km, pH 7.0, 25° C.
[13] = biological target: T3, Ssu72 (Homo sapiens, UniProt Q9NP77); test: Ssu72 inhibition, pNPP substrate; type: biochemical; details: pH 7
T3 construct: made in house
T3 sequence (Q9NP77 whole entry): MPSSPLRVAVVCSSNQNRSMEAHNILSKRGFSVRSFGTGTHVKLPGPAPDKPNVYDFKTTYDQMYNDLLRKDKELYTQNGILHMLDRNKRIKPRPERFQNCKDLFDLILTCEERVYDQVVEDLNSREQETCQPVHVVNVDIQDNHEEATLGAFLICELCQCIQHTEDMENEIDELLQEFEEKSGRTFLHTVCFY

[14] = biological target: mPTPA (Mycobacterium tuberculosis, UniProt P9WIA1); type: biochemical
[15] = biological target: T4, Laforin (Homo sapiens, UniProt O95278); test: Laforin inhibition, pNPP substrate; type: biochemical
T4 sequence (O95278 1-331): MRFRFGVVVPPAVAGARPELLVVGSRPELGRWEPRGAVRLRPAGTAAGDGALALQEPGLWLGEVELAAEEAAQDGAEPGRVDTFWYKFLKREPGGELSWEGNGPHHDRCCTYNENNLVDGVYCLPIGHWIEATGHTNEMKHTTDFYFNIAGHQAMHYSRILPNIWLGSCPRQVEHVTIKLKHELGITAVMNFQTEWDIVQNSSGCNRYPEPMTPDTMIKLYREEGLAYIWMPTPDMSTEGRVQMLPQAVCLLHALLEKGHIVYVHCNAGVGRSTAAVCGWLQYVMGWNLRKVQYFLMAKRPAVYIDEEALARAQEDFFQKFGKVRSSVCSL

[16] = biological target: mPTPB (Mycobacterium tuberculosis, UniProt I6WXK4); test: biochemical
Chain of mPTPB (I6WXK4 whole entry): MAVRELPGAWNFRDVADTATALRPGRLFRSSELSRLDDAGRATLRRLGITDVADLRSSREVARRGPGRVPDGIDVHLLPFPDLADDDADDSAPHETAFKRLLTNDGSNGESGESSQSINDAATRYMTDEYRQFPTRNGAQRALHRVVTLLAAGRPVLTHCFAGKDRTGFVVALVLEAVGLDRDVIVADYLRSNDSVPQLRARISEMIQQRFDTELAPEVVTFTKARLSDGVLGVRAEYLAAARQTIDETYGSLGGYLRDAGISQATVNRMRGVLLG

[17] = system: LMWPTP; test: Insulin signaling in HepG2 cells; type: cell-based, human; details: pretreated 1 hour, 5 nM insulin 5 minutes
Description: To assess the effects of L335N15 in insulin signaling pathway, HepG2 cells were pretreated with L335N15 for 1 hour and were subsequently stimulated with 5 nM insulin for 5 minutes. […] Consistent with IR activation, downstream Akt phosphorylation (Ser473) was increased. […] Accordingly, LMWPTP inhibitors such as L335N15 described herein can be used to develop agents for the treatment of type 2 diabetes and insulin resistance.

[18] = biological target: SHP2 (Homo sapiens, UniProt Q06124); test: Covalent adduct formation with SHP2, QTOF ESI-MS / LC-MS; details: pH 7, cefsulodin 3 hours, PVS 10 minutes
Description: Characterization of cefsulodin-mediated SHP2 inhibition by Q-TOF ESI-MS, LC-MS, and HPLC. Agilent 6520 Accurate-Mass was used for the Q-TOF ESI-MS studies. Water and acetonitrile (both containing 0.1% formic acid) were used as eluent (80% water, flow 50 μL/min, run time 5 minutes). ESI positive mode was used with mass range from 300 to 1700, the gas temperature was 325° C., and vaporizer temperature was: […] The sample was adjusted to have a concentration at 0.1 mg/mL, the injection volume of each sample was 1 μL. Mass hunter software was used for protein deconvolution data analysis to calculate the molecular weight of the protein.
Agilent Technologies 6130 quadrupole LC-MS instrument was used for the LC-MS studies. A C18 reserved phase column (phenomenex, 50×4.6 mm) was used as stationary phase, water and methanol (both containing 0.1% formic acid) were used as mobile phase (gradient: 0-100% methanol, flow 0 8 ml/min, run time 15 minutes), and UV absorbance at the fixed wavelength of 254 nm and positive and negative ESI-MS data were recorded. The sample was adjusted to have a concentration at 0.1 mg/mL, and the injection volume of each sample was 0.2 μL. The retention time and corresponding ESI-MS data were used as identity of molecules.

With `Cc1c(Br)cc(NC(=O)CS(=O)(=O)O)cc1Br` the “activity in standard MIC assays” value [1] was “devoid of activity” and the “anti-Mtb activity in Mtb-infected macrophages” value [2] was “markedly decrease bacterial load”.

For `O=C(Nc1ccccc1)C(=O)Nc1ccc(NC(=O)C(c2ccccc2)S(=O)(=O)O)cc1` (stereo not drawn) [Compound 7, 2-oxo-2-((4-(2-oxo-2-(phenylamino)acetamido)phenyl)amino)-1-phenylethanesulfonic acid], the “inhibitory activity against SHP2 at 50 μM” value ([3]; 50 μM) was “no inhibition” and the “EGF-mediated ERK1/2 phosphorylation in H1975 cells” value [4] was “no appreciable effect; also recorded: failed to block EGF-mediated ERK1/2 phosphorylation”.

In the case of `O=C(O)c1cc2c(C#Cc3cccc(C(F)(F)F)c3)c(-c3ccccc3)oc2cc1O` [Compound L01Z08], the “anti-Mtb activity in Mtb-infected macrophages” value [2] is reported as “potent anti-Mtb activity”.

In the case of `O=C(Nc1ccc2nc(C(F)(F)F)[nH]c2c1)C(c1ccccc1)S(=O)(=O)O` (stereo not drawn) [Compound L319M54], the IC50 [5] is reported as over 200 µM.

For `O=C(Nc1ccc(-n2ccnc2)cc1)C(c1ccccc1)S(=O)(=O)O` (stereo not drawn) [Compound L319M63], the IC50 [6] was over 100 µM, the IC50 [7] was over 100 µM and the IC50 [8] was over 100 µM. It also gave an IC50 [9] of over 100 µM, an IC50 ([3]; pNPP at Km, pH 7.0, 25° C.) of over 100 µM and an IC50 [10] of over 100 µM. For the same compound, the IC50 [11] was over 100 µM, the IC50 [12] was over 100 µM and the IC50 [13] was over 100 µM.

`O=C(Nc1ccc(N2CCOCC2)cc1)C(c1ccccc1)S(=O)(=O)O` (stereo not drawn) [Compound L319M68] was tested, and the “mode of mPTPA inhibition” value [14] was “competitive inhibitor” and the IC50 [5] was over 200 µM.

In the case of `O=C(Nc1nnc(-c2ccccc2)s1)C(c1ccccc1)S(=O)(=O)O` (stereo not drawn) [Compound L319M73-2], the “specificity for Laforin over LMPTP” value ([15]; ratio of IC50) is reported as 8 fold.

`O=C(Nc1cnc2ccccc2c1)C(c1ccccc1)S(=O)(=O)O` (stereo not drawn) [Compound L319M88] was tested, and the IC50 [5] was over 200 µM.

For `O=C(Nc1nc2ccc(O[N+](=O)[O-])cc2s1)C(c1ccccc1)S(=O)(=O)O` (stereo not drawn) [Compound L319N15-07], the “inhibition against Laforin at 100 μM” value [15] was “no detectable inhibition”.

With `O=C(Nc1nc2ccccc2s1)C(c1ccccc1)S(=O)(=O)O` (stereo not drawn) [Compound L319N15] the IC50 [5] was over 200 µM.

With `O=C(C(c1ccccc1)S(=O)(=O)O)N1CCC(c2ccc(Cl)c(Cl)c2)CC1` (stereo not drawn) [Compound L319N47] the “increase in potency against mPTPB compared to SPAA” value [16] was 2000 fold.

In the case of `O=C(CS(=O)(=O)O)Nc1nc2ccc([N+](=O)[O-])cc2s1` [Compound L335N15-07], the “inhibition against Laforin at 100 μM” value [15] is reported as “no detectable inhibition”.

With `O=C(CS(=O)(=O)O)Nc1nc2ccccc2s1` [Compound L335N15] the “Akt phosphorylation (Ser473) in HepG2 cells” value [17] was “increased” and the “IR Tyr1162/1163 phosphorylation in HepG2 cells” value ([17]; relative to DMSO) was “enhanced IR Tyr1162/1163 phosphorylation in a dose-dependent fashion”.

`NC(=O)C(c1ccccc1)S(=O)(=O)O` (stereo not drawn) [SPAA, α-sulfophenylacetic amide, reference compound] gave an IC50 [16] of 200 µM.

`C=CS(=O)(=O)c1ccccc1` [phenyl vinyl sulfone] was tested, and the “covalent adduct formation with SHP2” value [18] was “formed a covalent adduct”.
